From US8088784B2, “4-(3-aminopyrazole) pyrimidine derivatives for use as tyrosine kinase inhibitors in the treatment of cancer” (AstraZeneca AB, priority 2005, dated 2012)

What was measured:
human Trk A kinase = target: T1, human Trk A kinase (Homo sapiens, UniProt P04629); assay: Trk A kinase Alphascreen assay; assay type: biochemical; settings: HIS-tagged intracellular domain of human Trk A, 70 μM ATP, 20 minutes, room temperature; read-out: Trk inhibitory activity IC50
T1 construct: His; made in house; host or cells: SF9 insect cells
T1 sequence (P04629 442-796): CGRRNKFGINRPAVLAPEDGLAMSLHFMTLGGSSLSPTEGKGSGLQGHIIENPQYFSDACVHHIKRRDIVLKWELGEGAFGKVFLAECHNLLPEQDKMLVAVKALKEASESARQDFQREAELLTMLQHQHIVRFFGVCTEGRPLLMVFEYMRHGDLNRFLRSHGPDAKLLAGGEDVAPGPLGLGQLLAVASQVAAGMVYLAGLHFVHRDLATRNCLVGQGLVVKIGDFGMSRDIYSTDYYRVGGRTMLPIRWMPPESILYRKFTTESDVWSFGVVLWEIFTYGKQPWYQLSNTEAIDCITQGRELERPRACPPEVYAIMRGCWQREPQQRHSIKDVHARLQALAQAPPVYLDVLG
Description: Trk A kinase activity was measured for its ability to phosphorylate synthetic tyrosine residues within a generic polypeptide substrate using an Amplified Luminescent Proximity Assay (Alphascreen) technology (PerkinElmer, 549 Albany Street, Boston, Mass.).
To measure Trk A kinase activity, the intracellular domain of a HIS-tagged human Trk A kinase (amino acids 442-796 of Trk A, Swiss-Prot Primary Accession Number P04629) was expressed in SF9 cells and purified using standard nickel column chromatography. After incubation of the kinase with a biotinylated substrate and adenosine triphosphate (ATP) for 20 minutes at room temperature, the kinase reaction was stopped by the addition of 30 mM ethylenediaminetetraacetic acid (EDTA). The reaction was performed in 384 well microtitre plates and the reaction products were detected with the addition of strepavidin coated Donor Beads and phosphotyrosine-specific antibodies coated Acceptor Beads using the EnVision Multilabel Plate Reader after an overnight incubation at room temperature.

human JAK2 = target: T2, human JAK2 (Homo sapiens, UniProt O60674); assay: JAK2 kinase Alphascreen assay; assay type: biochemical; settings: recombinant human JAK2 (aa 808-end), 30uM ATP, 60 minutes, room temperature; read-out: JAK inhibitory activity IC50
T2 construct: human JAK2, amino acids 808-end; His6 (C); purchased Upstate Biotechnology 14-640; host or cells: baculovirus in Sf21 cells
T2 sequence (O60674 808-1132 limits assumed): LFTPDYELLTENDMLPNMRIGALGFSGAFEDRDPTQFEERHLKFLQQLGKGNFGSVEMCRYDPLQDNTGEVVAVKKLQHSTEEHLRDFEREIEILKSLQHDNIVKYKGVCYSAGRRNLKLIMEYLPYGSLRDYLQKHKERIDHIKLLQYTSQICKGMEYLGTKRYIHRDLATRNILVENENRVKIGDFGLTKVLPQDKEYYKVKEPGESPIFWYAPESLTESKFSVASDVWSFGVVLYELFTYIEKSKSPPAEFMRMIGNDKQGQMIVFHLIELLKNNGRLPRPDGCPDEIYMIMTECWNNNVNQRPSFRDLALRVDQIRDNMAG
Description: JAK2 kinase activity was measured for its ability to phosphorylate synthetic tyrosine residues within a generic polypeptide substrate using an Amplified Luminescent Proximity Assay (Alphascreen) technology (PerkinElmer, 549 Albany Street, Boston, Mass.).
To measure JAK2 kinase activity, commercially available purified enzyme, C-terminal His6-tagged, recombinant, human JAK2, amino acids 808-end, (Genbank Accession number NM 004972) expressed by baculovirus in Sf21 cells from Upstate Biotechnology #14-640 was used. After incubation of the kinase with a biotinylated substrate and adenosine triphosphate (ATP) for 60 minutes at room temperature, the kinase reaction was stopped by the addition of 30 mM ethylenediaminetetraacetic acid (EDTA). The reaction was performed in 384 well microtitre plates and the reaction products were detected with the addition of streptavidin coated Donor Beads and phosphotyrosine-specific antibodies coated Acceptor Beads using the EnVision Multilabel Plate Reader after an overnight incubation at room temperature.

IC50 (human Trk A kinase) [nM]	IC50 (human JAK2) [nM]	SMILES
33		CC(C)Oc1cc(Nc2nc(NC(C)c3ncc(F)cn3)ncc2Cl)n[nH]1 (centres unmarked) [Example 1, 5-Chloro-N^4-(5-isopropoxy-1H-pyrazol-3-yl)-N^2-[1-(5-fluoropyrimidin-2-yl)ethyl]pyrimidine-2,4-diamine]
	3.9	COc1cc(Nc2nc(N[C@@H](C)c3ncc(F)cn3)ncc2Cl)n[nH]1 [Example 7, 5-Chloro-N^2-[(1S)-1-(5-fluoropyrimidin-2-yl)ethyl]-10-(5-methoxy-1H-pyrazol-3-yl)pyrimidine-2,4-diamine]
